# Test results taken from ChEMBL document CHEMBL3727366, “Heterocyclic compounds for the treatment of stress-related conditions” (2013).
# Active and inactive are the calls of the source. The rule behind the calls is not given here.
# What was measured:
# [1] = system: Rattus norvegicus; test: Inhibition of restraint stress-induced defecation in Wistar rat at 5 mL/kg, po dosed 1 or 2 hrs before restraint stress; type: functional, organism-based
# [2] = system: Rattus norvegicus; test: Inhibition of tail-pinch stress-induced feeding behavior in Wistar rat at 5 mL/kg, po dosed 1 or 2 hrs before tail-pinch stimulus; type: functional, organism-based
# [3] = target: T1, Prolactin-releasing peptide receptor (Homo sapiens, UniProt P49683); test: Displacement of [3H]-PrRP from human GPR10 receptor expressed in HEK293 cell membranes incubated for 90 mins by liquid scintillation counting method
# T1 sequence (P49683 whole entry): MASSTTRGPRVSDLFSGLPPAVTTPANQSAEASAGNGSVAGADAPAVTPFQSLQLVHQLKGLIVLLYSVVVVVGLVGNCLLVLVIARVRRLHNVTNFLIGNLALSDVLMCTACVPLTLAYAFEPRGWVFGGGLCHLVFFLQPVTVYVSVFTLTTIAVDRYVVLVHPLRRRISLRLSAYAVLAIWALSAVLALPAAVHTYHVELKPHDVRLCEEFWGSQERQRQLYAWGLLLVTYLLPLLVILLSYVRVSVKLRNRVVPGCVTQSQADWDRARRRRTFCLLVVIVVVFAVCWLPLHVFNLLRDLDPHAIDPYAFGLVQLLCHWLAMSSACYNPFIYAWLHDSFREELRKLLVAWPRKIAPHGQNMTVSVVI
# [4] = target: T1, Prolactin-releasing peptide receptor; test: Antagonist activity against human GPR10 receptor expressed in HEK293 cells assessed as inhibition of PrRP-induced intracellular calcium mobilization pre-incubated for 15 mins before PrRP addition by Fluo-8 dye based fluorescence imaging plate reader method; type: functional, cell-based
Compound,inhibition [1],inhibition [2],Ki [3] [µM],IC50 [4] [µM]
COn1c(N[C@@H](C)c2ccc(C(F)(F)F)cc2)nc2c(c1=O)CN(C(=O)c1cc(-c3cccs3)n(C)n1)CC2,Active,Active,0.02,
CCOn1c(N[C@@H](C)c2ccc(C(F)(F)F)cc2)nc2c(c1=O)CN(C(=O)c1ccc(C#N)cc1)CC2,Active,Active,0.011,0.156
COn1c(N[C@H](c2ccc(Cl)cc2)C(C)C)nc2c(c1=O)CN(C(=O)c1cc3ccccn3n1)CC2,Active,Active,0.013,
COn1c(N[C@@H](C)c2ccc(C(F)(F)F)cc2)nc2c(c1=O)CN(C(=O)c1ccc(C)s1)CC2,Active,Active,0.01,1.13
C[C@H](Nc1nc2c(c(=O)n1N1CCCC1)CN(C(=O)c1ccc(C#N)cc1F)CC2)c1ccc(C(F)(F)F)cc1,Active,Active,0.006,0.298
CC(C)COn1c(N[C@@H](C)c2ccc(C(F)(F)F)cc2)nc2c(c1=O)CN(C(=O)c1ccc(C#N)cc1F)CC2,Active,Active,0.033,
COn1c(N[C@@H](C)c2ccc(C(F)(F)F)cc2)nc2c(c1=O)CN(C(=O)CCc1ccc(Cl)cc1)CC2,Active,Active,0.134,3.9
COn1c(N[C@@H](C)c2ccc(C(F)(F)F)cc2)nc2c(c1=O)CN(C(=O)c1cc3cccnc3s1)CC2,Active,Active,0.009,
COn1c(N[C@@H](C)c2ccc(C(F)(F)F)cc2)nc2c(c1=O)CN(C(=O)COc1ccc(C#N)cc1)CC2,Active,Active,0.006,
CCOn1c(N[C@@H](C)c2ccc(C(F)(F)F)cc2)nc2c(c1=O)CN(C(=O)c1cc3cccnc3s1)CC2,Active,Active,0.017,1.68
COn1c(N[C@@H](C)c2ccc(C(F)(F)F)cc2)nc2c(c1=O)CN(C(=O)c1ccc(Cl)s1)CC2,Active,Active,0.015,8.79
COn1c(N[C@@H](C)c2ccc(C(F)(F)F)cc2)nc2c(c1=O)CN(C(=O)c1ccc(C)c(F)c1)CC2,Active,Active,0.008,
COn1c(N[C@@H](C)c2ccc(C(F)(F)F)cc2)nc2c(c1=O)CN(C(=O)c1cc3occc3n1C)CC2,Active,Active,0.01,
C[C@H](Nc1nc2c(c(=O)n1N1CCCC1)CN(C(=O)c1ccc(C#N)cc1)CC2)c1ccc(C(F)(F)F)cc1,Active,Active,0.01,0.648
CCOn1c(N[C@@H](C)c2ccc(C(F)(F)F)cc2)nc2c(c1=O)CN(C(=O)c1ccc(Cl)cc1)CC2,Active,Active,0.025,3.71
COn1c(N[C@@H](C)C2CCCCC2)nc2c(c1=O)CN(C(=O)c1ccc(Cl)cc1)CC2,Active,Active,0.108,
COn1c(N[C@@H](C)c2ccc(C(F)(F)F)cc2)nc2c(c1=O)CN(C(=O)c1ccc3c(c1)OCCO3)CC2,Active,Active,0.01,

Compound,inhibition [1],inhibition [2],Ki [3] [µM],IC50 [4] [µM]
CCOn1c(N[C@@H](C)c2ccc(C(F)(F)F)cc2)nc2c(c1=O)CN(C(=O)c1ccc(-c3cnco3)cc1)CC2,Active,Active,0.02,0.158
COn1c(N[C@H](c2ccc(Cl)cc2)C(C)C)nc2c(c1=O)CN(C(=O)c1ccc3c(c1)OCCO3)CC2,Active,Active,0.042,
C[C@H](Nc1nc2c(c(=O)n1N1CCOCC1)CN(C(=O)c1ccc(C#N)cc1F)CC2)c1ccc(C(F)(F)F)cc1,Active,Active,0.003,0.187
CC[C@H](Nc1nc2c(c(=O)n1OC)CN(C(=O)c1ccc(C#N)cc1F)CC2)c1ccc(C(F)(F)F)cc1,Active,Active,0.008,
COn1c(N[C@@H](C)c2ccc(C(F)(F)F)cc2)nc2c(c1=O)CN(C(=O)CSc1ccc(Cl)cc1)CC2,Active,Active,0.008,1.14
COn1c(N[C@@H](C)c2ccc(C(F)(F)F)cc2)nc2c(c1=O)CN(C(=O)c1ccc(C)c(C)c1)CC2,Active,Active,0.004,1.03
COc1ccc(C(=O)N2CCc3nc(N[C@@H](C)c4ccc(C(F)(F)F)cc4)n(OC)c(=O)c3C2)c(OC)n1,Active,Active,0.007,0.228
"COn1c(NC(C)c2ccc(Cl)cc2)nc2c(c1=O)CN(C(=O)COc1ccc(Cl)cc1)CC2 (single isomer, unassigned)",Active,Active,0.015,1.18
COn1c(N[C@@H](C)c2ccc(C(F)(F)F)cc2)nc2c(c1=O)CN(C(=O)/C=C/c1ccc(Cl)cc1)CC2,Active,Active,0.012,5.79
COn1c(N[C@H](C)C2CCCCC2)nc2c(c1=O)CN(C(=O)c1ccc(C#N)cc1F)CC2,Active,Active,0.061,
COn1c(N[C@@H](C)c2ccc(C(F)(F)F)cc2)nc2c(c1=O)CN(C(=O)c1ccc(Cl)o1)CC2,Active,Active,0.048,
COn1c(N[C@H](c2ccc(Cl)cc2)C(C)C)nc2c(c1=O)CN(C(=O)c1ccc(-n3ccnc3)cc1)CC2,Active,Active,0.031,
COc1ccc2oc(C(=O)N3CCc4nc(N[C@@H](C)c5ccc(C(F)(F)F)cc5)n(OC)c(=O)c4C3)cc2c1,Active,Active,0.014,
COn1c(N[C@@H](C)c2ccc(C(F)(F)F)cc2)nc2c(c1=O)CN(C(=O)COc1ccc(Cl)cc1)CC2,Active,Active,0.008,0.678
CCOn1c(N[C@@H](C)c2ccc(C(F)(F)F)cc2)nc2c(c1=O)CN(C(=O)c1ccc(C#N)cc1F)CC2,Active,Active,0.005,0.227
COn1c(N[C@@H](C)C2CCCCC2)nc2c(c1=O)CN(C(=O)c1ccc(C#N)cc1F)CC2,Active,Active,0.056,
